In general, ED50 refers to the dose that gives a 50% effect, or the effect in half of the subjects.

This passage reports ED50 results from patent US5100895A, “Heterocyclic compounds and their preparation and use” (Novo Nordisk A/S, priority 1989, dated 1992).

For this test, the system named is benzodiazepine receptors. In words: in vivo displacement of 3H-flunitrazepam specific binding to benzodiazepine receptors in a living brain. The note with it: dose which causes specific binding of 3H-flunitrazepam to benzodiazepine receptors in a living brain to be reduced to 50% of the control value. An excerpt: The pharmaceutical properties of the compounds of the invention can be illustrated by determining their capability for displacing radioactive labelled flunitrazepam from benzodiazepine receptors.
The displacement activity of the compounds of the invention may be found by determining the ED50 value. The ED50 value represents the dose (mg/kg) of a test substance which causes the specific binding of ^3 H-flunitrazepam to benzodiazepine receptors in a living brain to be reduced to 50% of the control value.
Such an in vivo test is carried out as described in U.S. Pat. No. 4,774,245.
For orientation: Displacement assays read how much labelled ligand stays bound in the presence of the test substance.
Compound `Clc1cccc2c1C1=NCCN1c1c(-c3noc(C4CC4)n3)ncn1-2` [Compound 6, 12-Chloro-5-(5-cyclopropyl-1,2,4-oxadiazol-3-yl)-2,3-dihydrodiimidazo[1,5-a:1',2'-c]quinazoline] yielded an ED50 of 0.23 mg/kg.

In turn, `Brc1cccc2c1C1=NCCN1c1c(-c3noc(C4CC4)n3)ncn1-2` [Compound 7, 12-Bromo-5-(5-cyclopropyl-1,2,4-oxadiazol-3-yl)-2,3-dihydroiimidazo[1,5-a:1',2'-c]quinazoline] had an ED50 of 0.92 mg/kg.

The compound `FC(F)(F)c1cccc2c1c1nccn1c1c(-c3noc(C4CC4)n3)ncn21` [Compound 28, 5-(5-Cyclopropyl-1,2,4-oxadiazol-3-yl)-12-trifluoromethyldiimidazo[1,5-a:1',2'-c]quinazoline] had an ED50 of 0.12 mg/kg.

`Brc1cccc2c1C1=NCCN1c1c(-c3nc(C4CC4)no3)ncn1-2` [Compound 8, 12-Bromo-5-(3-cyclopropyl-1,2,4-oxadiazol-5-yl)-2,3-dihydrodiimidazo[1,5-a:1',2'-c]quinazoline] gave an ED50 of 1.7 mg/kg.

On to `c1ccc2c(c1)C1=NCCN1c1c(-c3noc(C4CC4)n3)ncn1-2` [Compound 1, 5-(5-cyclopropyl-1,2,4-oxadiazol-3-yl)-2,3-dihydrodiimidazol[1,5-a:1',2'-c]quinazoline], for which the ED50 amounted to 0.47 mg/kg.

`FC(F)(F)c1cccc2c1C1=NCCN1c1c(-c3noc(C4CC4)n3)ncn1-2` [Compound 12, 5-(5-Cyclopropyl-1,2,4-oxadiazol-3-yl)-2,3-dihydro-12-trifluoromethyldiimidazo[1,5-a:1',2'-c]quinazoline] registered an ED50 of 0.08 mg/kg.

`Fc1ccc2c(c1)C1=NCCN1c1c(-c3noc(C4CC4)n3)ncn1-2` [Compound 21, 5-(5-Cyclopropyl-1,2,4-oxadiazol-3-yl)-11-fluoro-2,3-dihydrodiimidazo[1,5-a:1',2'-c]quinazoline]: the ED50 turned out to be 0.26 mg/kg.

The compound `FC(F)(F)c1cccc2c1C1=NCCN1c1c(-c3nc(C4CC4)no3)ncn1-2` [Compound 19, 5-(3-Cyclopropyl-1,2,4-oxadiazol-5-yl)-2,3-dihydro-12-trifluoromethyldiimidazo[1,5-a:1',2'-c]quinazoline] had a median effective dose (ED50) of 0.08 mg/kg.
